Laboratory results reported in US4081548A, “Antibiotics” (Merck & Co., Inc., priority 1976, dated 1978).
Values after ≈ are worked out from the molar mass of the structure shown.

What was measured:
Escherichia coli 2017 = assay: agar dilution method, Table 2; assay type: cell-based; settings: Mueller-Hinton agar, 18 hours, 37° C., strain resistance: --, read-out: Minimum Inhibitory Concentration
Procedure: (§1) A further evaluation of substantially pure antibiotic employed the agar dilution method. An inoculum of 2 × 10^4 to 1 × 10^5 organisms is applied as a 0.002 ml. droplet to the surface of Mueller-Hinton agar containing serial, twofold dilutions of antibiotic over the range 0.01 to 73 μg./ml. The results (Table 2) are reported as the minimum inhibitory concentration, in μg./ml., that being the lowest antibiotic concentration at which the growth of the test organism is inhibited over a period of 18 hours at 37° C.

Escherichia coli 2482 = assay: agar dilution method, Table 2; assay type: cell-based; settings: Mueller-Hinton agar, 18 hours, 37° C., strain resistance: --, read-out: Minimum Inhibitory Concentration
Procedure: as §1

Escherichia coli 2964 = assay: agar dilution method, Table 2; assay type: cell-based; settings: Mueller-Hinton agar, 18 hours, 37° C., strain resistance: P, read-out: Minimum Inhibitory Concentration
Procedure: as §1

Klebsiella 2921 = assay: agar dilution method, Table 2; assay type: cell-based; settings: Mueller-Hinton agar, 18 hours, 37° C., strain resistance: P, read-out: Minimum Inhibitory Concentration
Procedure: as §1

Klebsiella 2922 = assay: agar dilution method, Table 2; assay type: cell-based; settings: Mueller-Hinton agar, 18 hours, 37° C., strain resistance: P, read-out: Minimum Inhibitory Concentration
Procedure: as §1

Proteus mirabilis 2830 = assay: agar dilution method, Table 2; assay type: cell-based; settings: Mueller-Hinton agar, 18 hours, 37° C., strain resistance: P, read-out: Minimum Inhibitory Concentration
Procedure: as §1

[1] = test system: Pseudomonas aeruginosa 2616; assay: agar dilution method, Table 2; assay type: cell-based; settings: Mueller-Hinton agar, 18 hours, 37° C., strain resistance: P, read-out: Minimum Inhibitory Concentration
Procedure: as §1

[2] = test system: Pseudomonas aeruginosa 2824; assay: agar dilution method, Table 2; assay type: cell-based; settings: Mueller-Hinton agar, 18 hours, 37° C., strain resistance: P, read-out: Minimum Inhibitory Concentration
Procedure: as §1

[3] = test system: Pseudomonas aeruginosa 3210; assay: agar dilution method, Table 2; assay type: cell-based; settings: Mueller-Hinton agar, 18 hours, 37° C., strain resistance: P, read-out: Minimum Inhibitory Concentration
Procedure: as §1

Serratia 2840 = assay: agar dilution method, Table 2; assay type: cell-based; settings: Mueller-Hinton agar, 18 hours, 37° C., strain resistance: P, read-out: Minimum Inhibitory Concentration
Procedure: as §1

[4] = test system: Staphylococcus aureus 2314; assay: agar dilution method, Table 2; assay type: cell-based; settings: Mueller-Hinton agar, 18 hours, 37° C., strain resistance: P, read-out: Minimum Inhibitory Concentration
Procedure: as §1

Staph. aureus 2949 = assay: in vivo efficacy in infected mice, Table 3; set-up: species or system Staphylococcus aureus; settings: 168 h, day 7 survival
Procedure: (§2) In determining the in vivo activity, thienamycin is dissolved in and diluted with 0.15M NaCl, 0.01M sodium phosphate, pH 7.0, to provide five fourfold concentrations of drug for testing. Female white Swiss mice, averaging about 21 g. in weight, were infected intraperitoneally and subcutaneously with the test organism suspended in broth. The numbers of organisms injected were determined by standard plate-count techniques. At the time of infection, and again 6 hours later, certain of the mice were treated intraperitoneally, subcutaneously and orally with the antibiotic. Five mice were used for each concentration of drug tested. An additional two mice, not infected, were treated with the antibiotic to determine whether the amount of agent injected was toxic. Controls of five mice for each of several dilutions of the infecting culture were included in each test in order to calculate the numbers of organisms that were lethal to 50% of the infected, untreated mice (LD50). This calculation was made using survival data of the seventh day after infection, at which time the amount of drug that should protect 50% of the infected mice (ED50) also was calculated.
(§3) All animals receiving this challenge and not treated with antibiotic died within 48 hours of the infection. The efficacy of thienamycin having a potency of 30,000 units per mg. is recorded in Table 3: […]

E. coli 2017 = assay: in vivo efficacy in infected mice, Table 3; settings: Escherichia coli, 2017, ip, 168 h, i.p. x2 (at infection and 6 hours later), No. LD50 9, day 7 survival
Procedure: as §2, §3

[5] = test system: Pseudomonas aeruginosa 3210; assay: in vivo efficacy in infected mice, Table 3; settings: 168 h, No. LD50 7, day 7 survival
Procedure: as §2, §3

solubility = assay type: physicochemical
[6] = pKa from pH induced shift in ultraviolet absorption spectrum; assay type: physicochemical; settings: acidic function; 30 mM. phosphate buffer; read-out: pKa1
Procedure: Thienamycin is an internally neutralized amphoteric substance, whose acidic function has a pKa1 = 3.08 when measured in 30 mM. phosphate buffer, taking advantage of the pH induced shift in ultraviolet absorption spectrum.

[7] = stability in aqueous solution; assay type: physicochemical
inactivation by cysteine = assay type: physicochemical; settings: cysteine 4 μmoles per ml., pH 7.0, 20° C.
β-lactamase = β-lactamase (Enterobacter cloacae, UniProt P05364); assay: exposure to β-lactamase preparations; assay type: biochemical; settings: β-lactamase from sonic disintegration of a strain of Enterobacter cloacae
β-lactamase, sequence (P05364 21-381): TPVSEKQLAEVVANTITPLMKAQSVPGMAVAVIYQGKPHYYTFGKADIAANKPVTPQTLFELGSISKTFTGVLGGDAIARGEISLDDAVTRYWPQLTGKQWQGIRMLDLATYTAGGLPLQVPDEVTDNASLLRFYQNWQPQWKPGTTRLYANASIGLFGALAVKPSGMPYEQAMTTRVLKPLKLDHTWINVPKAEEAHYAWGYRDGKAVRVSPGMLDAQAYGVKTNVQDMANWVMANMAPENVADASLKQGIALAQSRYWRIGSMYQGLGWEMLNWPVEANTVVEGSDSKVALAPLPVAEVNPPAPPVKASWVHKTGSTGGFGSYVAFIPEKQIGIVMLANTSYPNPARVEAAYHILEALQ
Excerpt: Finally, antibiotic activity and absorbance are extinguished on exposure to preparations of β-lactamase obtained by the sonic disintegration of a strain of Enterobacter cloacae.

[8] = test system: Staphylococcus aureus ATCC 6538P; assay: disc-diffusion assay of antibacterial activity (5 ml plates); assay type: cell-based; settings: one unit = same inhibition as 1 μg. of cephalothin/ml.
Procedure: Assays of antibacterial activity are run according to the following disc-diffusion procedure unless otherwise indicated. The assay plates are prepared in the following manner. An overnight growth of the assay organism, Staphylococcus aureus ATCC 6538P, in nutrient broth plus 0.2% yeast extract is diluted with nutrient broth plus 0.2% yeast extract to a suspension having 55% transmittance at a wavelength of 660 mμ. This suspension is added to Difco nutrient agar supplemented with 2.0 g./l. Difco yeast extract, at 47° C. to 48° C., to make a composition containing 33.2 ml. of the suspension per liter of agar. Five ml. of this suspension is poured into petri dishes of 85 mm. diameter, and these plates are chilled and held at 4° C. until used (5 day maximum).
Samples of the antibiotic to be assayed are diluted to an appropriate concentration in phosphate buffer at pH 7. Filter-paper discs, 0.5-inch in diameter, are dipped into the test solution and placed on the surface of the assay plate; two discs for each sample are normally placed on one plate opposite to one another. The plates are incubated overnight at 37° C. and the zone of inhibition is measured as mm. diameter. The zone of inhibition measured in mm. determines relative potencies or, when compared with a purified reference standard such as cephalothin, the potency of antibiotic in units/ml. The unit of activity reported in Examples 4 through 7 is based on cephalothin standard solutions of 8, 4, 2 and 1 μg./ml. One unit is defined as the amount which calculates to produce the same inhibition as 1 μg. of cephalothin/ml. that zone of inhibition being between 16 and 21 mm. diameter.

[9] = Hydroxylamine-Extinguishable Absorbance; assay type: physicochemical; settings: pure thienamycin; 10 mM. hydroxylamine, pH 7.0, room temperature, at least 30 min., 297 nm
Procedure: The proportion of absorbance measured at 297 nm which can be attributed to the antibiotic content in impure samples is determined by the selective extinction of this absorbance (with concommitant inactivation of antibiotic activity) upon reaction with dilute hydroxylamine.
Samples are prepared in 0.01M potassium phosphate buffer at pH 7.0 to have an initial A297 between 0.05 and 2.0. Freshly prepared, neutral hydroxylamine (NH2 OH.HCl plus NaOH to a final pH of 7) is added to a final concentration of 10 mM., and reaction is allowed to progress at room temperature for at least 30 min. The resulting A297 when substracted from the initial reading (after correction for dilution by added reagent) yields the hydroxylamine-extinguishable absorbance. Solutions of pure thienamycin show a hydroxylamine-extinguishable absorbance of 94.5%.

C[C@@H](O)[C@H]1C(=O)N2C(C(=O)O)=C(SCCN)C[C@H]12 [Thienamycin, thienamycin]
MIC (Escherichia coli 2017): 0.15 µg/mL (≈ 0.551 µM) | MIC (Escherichia coli 2482): 0.3 µg/mL (≈ 1.1 µM) | MIC (Escherichia coli 2964): 0.3 µg/mL (≈ 1.1 µM) | MIC (Klebsiella 2921): 0.3 µg/mL (≈ 1.1 µM) | MIC (Klebsiella 2922): 0.3 µg/mL (≈ 1.1 µM) | MIC (Proteus mirabilis 2830): 4.7 µg/mL (≈ 17.3 µM) | MIC [1]: 4.7 µg/mL (≈ 17.3 µM) | MIC [2]: 0.6 µg/mL (≈ 2.2 µM) | MIC [3]: 2.4 µg/mL (≈ 8.81 µM) | MIC (Serratia 2840): 4.7 µg/mL (≈ 17.3 µM) | MIC [4]: 0.02 µg/mL (≈ 0.0734 µM) | ED50 (Staph. aureus 2949; Staphylococcus aureus, 2949, ip, mice, i.p. x2 (at infection and 6 hours later), No. LD50 7): 0.012 mg/kg | ED50 (Staph. aureus 2949; Staphylococcus aureus, 2949, po, mice fasted 24 hours, p.o. x2 (at infection and 6 hours later), No. LD50 13): 0.67 mg/kg | ED50 (Staph. aureus 2949; Staphylococcus aureus, 2949, sc, mice, s.c. x2 (at infection and 6 hours later), No. LD50 7): 0.08 mg/kg | ED50 (E. coli 2017): 0.375 mg/kg | ED50 ([5]; Pseudomonas aeruginosa, 3210, ip, i.p. x3 (at infection, 2 and 4 hours)): 0.45 mg/kg | ED50 ([5]; Pseudomonas aeruginosa, 3210, sc, s.c. x3 (at infection, 2 and 4 hours)): 2.05 mg/kg | solubility in methanol (solubility; methanol): limited solubility in methanol | solubility in water (solubility; water): very soluble in water | pKa [6]: 3.08 | half-life ([7]; 1 mg./ml. in 10 mM. potassium phosphate, pH 7.0, 0° C.): 53300 min | half-life ([7]; 1 mg./ml. in water (pH 7.0), 0° C.): 28800 min | half-life ([7]; 12 mg./ml. in 10 mM. phosphate buffer, 10° C.): 4320 min | coloration on storage ([7]; 12 mg./ml. in 10 mM. phosphate buffer, 10° C., by the 48th hour, initially pale yellow): deep amber coloration | half-life ([7]; aqueous solution, pH 8.2, 30° C.): 10 min | stability in aqueous solution ([7]; below 1 mg./ml., phosphate buffers, pH between 6 and 7): optimum stability | half-life ([7]; pH 2.0, 30 mM. phosphate buffer, room temperature): 6.7 min | half-life ([7]; pH 3.0, 30 mM. phosphate buffer, room temperature): 30 min | half-life ([7]; pH 4.0, 30 mM. phosphate buffer, room temperature): 346 min | half-life ([7]; pH 8.8 (borate buffer), 30° C.): 5.7 min | half-life ([7]; pH 12 (0.01M sodium hydroxide), 30° C.): 2.1 min | half-life (inactivation by cysteine): 2.5 min | antibiotic activity and absorbance on exposure to β-lactamase (β-lactamase): extinguished | potency (estimated / calculated) ([8]; estimated or calculated potency): 30,140 units/mg. | potency [8]: 30,000 units/mg. | hydroxylamine-extinguishable absorbance [9]: 94.5%
